Assay results taken from patent US20250052754A1, “COMPOSITIONS AND METHODS FOR DIAGNOSIS, TREATMENT OF AND PREVENTION OF KIDNEY DISEASE” (XORTX THERAPEUTICS, INC., priority 2021, published 2025).
Converted amounts (≈) assume the structure as drawn.

Experiments:
[1] = system: rat model of polycystic kidney disease (PCK); test: uricase inhibition by oxonic acid in rat model of polycystic kidney disease (FIG. 6A); type: in vivo
Experimental: (§1) FIG. 6: provides data showing that uricase inhibition by oxonic acid (OXO) and commensurate increased uric acid is associated with increased total kidney to body weight ratio (2K/BWT) in a rat model of polycystic kidney disease (PCK) and in a mouse model of polycystic kidney disease (Pkd1RC/RC). Rodent models of polycystic kidney disease were treated with a uricase enzyme inhibitor—oxonic acid (OXO)—to decrease the metabolism of uric acid to allantoin, thereby chronically increasing circulating serum uric acid concentration. […] Increased serum uric acid is associated with structural and functional changes in kidney function. Increased creatinine is associated with decreased filtering capacity of kidneys. disease.

[2] = system: mouse model of polycystic kidney disease (Pkd1RC/RC); test: uricase inhibition by oxonic acid in mouse model of polycystic kidney disease (FIG. 6B); type: in vivo
Experimental: as §1

[3] = system: rodent model of polycystic kidney disease—mouse RC/RC; test: oxonic acid exposure with or without OXY+L in mouse RC/RC, kidney size (FIG. 9); type: in vivo; conditions: oxonic acid (OXO) exposure alone
Excerpt: FIG. 9: is a graph showing that in a rodent model of polycystic kidney disease—mouse RC/RC-oxonic acid (OXO) exposure increased kidney size.

[4] = system: rodent model of polycystic kidney disease; test: uricase inhibition by oxonic acid, kidney function in rodent model of polycystic kidney disease (FIG. 7); type: in vivo
[5] = oxypurinol solubility with and without metformin; type: physicochemical
Excerpt: The term “organic base” as used herein refers to the organic base may be (a) a Class 1 base with a pKa1 between about 7 to 13 including but not limited to L-arginine, D-arginine, choline, L-lysine, D-lysine, and caffeine. In an alternative embodiment, the organic base is a biguanide (U.S. Pat. No. 9,480,663) or biguanidine such as metformin, phenformin, buformin or a salts thereof. It is noted that metformin has multiple beneficial effects in the context of compositions and methods described herein. First, it can act as a solubilizing agent for oxypurinol to increase oral bioavailablity. Secondarily, it can act as an alkalinizing agent. Thirdly, metformin here can act as a uric acid solubilizing agent. […] The gliflozin family of SGLT2 inhibitors are also basic and can serve as an organic base in accord with the teachings herein.

[6] = 8 weeks of treatment with oxonic acid, compared to untreated animals
[7] = PCK rat, after 70 days exposure to oxonic acid, P<0.05
[8] = Pkd1RC/RC mouse, after 70 days exposure to oxonic acid, P<0.05

solubility ([5]; 1:01 to 1:10 ratio of oxypurinol to metformin)	solubility ([5]; without metformin (starting value))	Structure (SMILES)	total kidney volume [1, 6]	serum uric acid ([1]; PCK rat, after 70 days exposure to oxonic acid)	cyst size [1, 7]	total kidney to body weight ratio (2K/BWT) [1, 7]	serum creatinine ([1]; PCK rat, after 70 days exposure to oxonic acid, P<0.07)	total kidney volume [2, 6]	serum uric acid ([2]; Pkd1RC/RC mouse, after 70 days exposure to oxonic acid)	cyst size [2, 8]	serum creatinine [2, 8]	total kidney to body weight ratio (2K/BWT) [2, 8]	kidney size [3]	creatinine in serum (kidney function) [4]
		O=C(O)c1nc(=O)[nH]c(=O)[nH]1 [oxonic acid]	increased significantly	increased	increased	increase	increased	increased significantly	increased	increased	increased	increase	increased	increased
≥ 16800 µg/mL	200 µg/mL (≈ 1310 µM)	O=c1[nH]c(=O)c2c[nH]nc2[nH]1 [oxypurinol]												
